Where a name gives a salt, the structure may show the parent alone.
Columns and labels:
Test in all cases: Cell viability drug screen, 12-point dose-response AUC
Type in all cases: cell-based, human
SNU216 = conditions: 72 hours; for Average Area Under the Viability Curve (AUC), AUC norm value: SNU216 cells (non-SEM subtype)
Method in brief: (§1)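 Luminescent viability readings, taken 15 min after reagent addition at room temperature, were normalized to the 0.5% DMSO control to build 12-point dose-response curves. Trapezoidal integration gave the AUC. Cells had been plated at 5×10^3 per well and then exposed to half-log dilutions for 72 h.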

SNU638 = SNU638 cells, 72 hours
Method in brief: (§2)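 Twelve half-log concentrations per compound were tested on gastric cancer cells with an EMT phenotype (5×10^3/well, dosed 24 h post-seeding). Viability after 72 h was quantified via luminescence relative to 0.5% DMSO, and repeats were averaged.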

NCC19 = NCC19 cells, 72 hours
Method in brief: as §2

SNU1750 = conditions: 72 hours; for Average Area Under the Viability Curve (AUC), AUC norm value: SNU1750 cells (SEM subtype)
Method in brief: as §2

YCC11 = conditions: 72 hours; for Average Area Under the Viability Curve (AUC), AUC norm value: YCC11 cells (SEM subtype)
Method in brief: as §2

NCC24 = NCC24 cells, 72 hours
Method in brief: as §2

MKN45 = conditions: 72 hours; for Average Area Under the Viability Curve (AUC), AUC norm value: MKN45 cells (non-SEM subtype)
Method in brief: as §1

NCC59 = NCC59 cells, 72 hours
Method in brief: as §2

SNU668 = conditions: 72 hours; for Average Area Under the Viability Curve (AUC), AUC norm value: SNU668 cells (SEM subtype)
Method in brief: as §2

SNU620 = SNU620 cells, 72 hours
Method in brief: as §2

Hs746T = conditions: 72 hours; for Average Area Under the Viability Curve (AUC), AUC norm value: Hs746T cells (SEM subtype)
Method in brief: as §2

SNU601 = SNU601 cells, 72 hours
Method in brief: as §2

SNU16 = SNU16 cells, 72 hours
Method in brief: as §2

NCI_N87 = NCI_N87 cells, 72 hours
Method in brief: as §2

MKN28 = MKN28 cells, 72 hours
Method in brief: as §2

MKN74 = MKN74 cells, 72 hours
Method in brief: as §1

SNU719 = SNU719 cells, 72 hours
Method in brief: as §1

SNU1967 = SNU1967 cells, 72 hours
Method in brief: as §2

AGS = conditions: 72 hours; for Average Area Under the Viability Curve (AUC), AUC norm value: AGS cells (non-SEM subtype)
Method in brief: as §1

MKN1 = MKN1 cells, 72 hours
Method in brief: as §2

SK4 = conditions: 72 hours; for Average Area Under the Viability Curve (AUC), AUC norm value: SK4 cells (SEM subtype)
Method in brief: as §2

YCC3 = YCC3 cells, 72 hours
Method in brief: as §2

SNU484 = conditions: 72 hours; for Average Area Under the Viability Curve (AUC), AUC norm value: SNU484 cells (SEM subtype)
Method in brief: as §2

YCC2 = YCC2 cells, 72 hours
Method in brief: as §2

OCUM1 = OCUM1 cells, 72 hours
Method in brief: as §2

KATO3 = KATO3 cells, 72 hours
Method in brief: as §2

NCC20 = NCC20 cells, 72 hours
Method in brief: as §2

SNU1 = SNU1 cells, 72 hours
Method in brief: as §2

FU97 = tested on: FU97; design: Average Area Under the Viability Curve (AUC), AUC norm value: scale not given here; conditions: FU97 cells, 72 hours
Method in brief: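 Trapezoidal AUC of a 12-point, DMSO-normalized dose-response curve. Luminescent viability was measured after 72 h of exposure at 37° C to half-log serial dilutions (0.5% DMSO control), dosed 24 h after plating FU97 cells at 5×10^3 per well.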

Compound: CC(C)(C)c1ccc(C(O)CCCN2CCC(C(O)(c3ccccc3)c3ccccc3)CC2)cc1 (stereo not drawn) [Terfenadine]
- Average Area Under the Viability Curve (AUC), AUC norm value (SNU216): 1.499
- Average Area Under the Viability Curve (AUC), AUC norm value (SNU638): −0.8091
- Average Area Under the Viability Curve (AUC), AUC norm value (NCC19): 3.135
- Average Area Under the Viability Curve (AUC), AUC norm value (SNU1750): −0.05758
- Average Area Under the Viability Curve (AUC), AUC norm value (YCC11): −0.996
- Average Area Under the Viability Curve (AUC), AUC norm value (NCC24): −2.355
- Average Area Under the Viability Curve (AUC), AUC norm value (MKN45): −0.5441
- Average Area Under the Viability Curve (AUC), AUC norm value (NCC59): 2.3563
- Average Area Under the Viability Curve (AUC), AUC norm value (SNU668): −0.5647
- Average Area Under the Viability Curve (AUC), AUC norm value (SNU620): 0.4918
- Average Area Under the Viability Curve (AUC), AUC norm value (Hs746T): −0.3246
- Average Area Under the Viability Curve (AUC), AUC norm value (SNU601): 2.641
- Average Area Under the Viability Curve (AUC), AUC norm value (SNU16): 0
- Average Area Under the Viability Curve (AUC), AUC norm value (NCI_N87): 1.465
- Average Area Under the Viability Curve (AUC), AUC norm value (MKN28): −0.2901
- Average Area Under the Viability Curve (AUC), AUC norm value (MKN74): −1.589
- Average Area Under the Viability Curve (AUC), AUC norm value (SNU719): 1.059
- Average Area Under the Viability Curve (AUC), AUC norm value (SNU1967): −1.065
- Average Area Under the Viability Curve (AUC), AUC norm value (AGS): −1.278
- Average Area Under the Viability Curve (AUC), AUC norm value (MKN1): −0.8127
- Average Area Under the Viability Curve (AUC), AUC norm value (SK4): −0.8713
- Average Area Under the Viability Curve (AUC), AUC norm value (YCC3): 1.423
- Average Area Under the Viability Curve (AUC), AUC norm value (SNU484): 0.06057
- Average Area Under the Viability Curve (AUC), AUC norm value (YCC2): 0.4862
- Average Area Under the Viability Curve (AUC), AUC norm value (OCUM1): 1.032
- Average Area Under the Viability Curve (AUC), AUC norm value (KATO3): 0.4901
- Average Area Under the Viability Curve (AUC), AUC norm value (NCC20): −1.029
- Average Area Under the Viability Curve (AUC), AUC norm value (SNU1): 1.34
- Average Area Under the Viability Curve (AUC), AUC norm value (FU97): 1.163

Compound: CC[C@@]1(O)C(=O)OCc2c1cc1n(c2=O)Cc2cc3c(CN(C)C)c(O)ccc3nc2-1 [Topotecan HCI, Topotecan HCl]
- Average Area Under the Viability Curve (AUC), AUC norm value (SNU216): 1.123
- Average Area Under the Viability Curve (AUC), AUC norm value (SNU638): −0.7133
- Average Area Under the Viability Curve (AUC), AUC norm value (NCC19): 2.896
- Average Area Under the Viability Curve (AUC), AUC norm value (SNU1750): 0.2818
- Average Area Under the Viability Curve (AUC), AUC norm value (YCC11): −0.573
- Average Area Under the Viability Curve (AUC), AUC norm value (NCC24): 0.0033
- Average Area Under the Viability Curve (AUC), AUC norm value (MKN45): 1.195
- Average Area Under the Viability Curve (AUC), AUC norm value (NCC59): 1.957
- Average Area Under the Viability Curve (AUC), AUC norm value (SNU668): −1.128
- Average Area Under the Viability Curve (AUC), AUC norm value (SNU620): −0.7611
- Average Area Under the Viability Curve (AUC), AUC norm value (Hs746T): 0.4587
- Average Area Under the Viability Curve (AUC), AUC norm value (SNU601): −0.5589
- Average Area Under the Viability Curve (AUC), AUC norm value (SNU16): −0.5292
- Average Area Under the Viability Curve (AUC), AUC norm value (NCI_N87): 2.857
- Average Area Under the Viability Curve (AUC), AUC norm value (MKN28): 1.259
- Average Area Under the Viability Curve (AUC), AUC norm value (MKN74): 0
- Average Area Under the Viability Curve (AUC), AUC norm value (SNU719): 3.069
- Average Area Under the Viability Curve (AUC), AUC norm value (SNU1967): −2.648
- Average Area Under the Viability Curve (AUC), AUC norm value (AGS): −2.159
- Average Area Under the Viability Curve (AUC), AUC norm value (MKN1): −0.9954
- Average Area Under the Viability Curve (AUC), AUC norm value (SK4): −0.4515
- Average Area Under the Viability Curve (AUC), AUC norm value (YCC3): 1.923
- Average Area Under the Viability Curve (AUC), AUC norm value (SNU484): 1.128
- Average Area Under the Viability Curve (AUC), AUC norm value (YCC2): 0.1906
- Average Area Under the Viability Curve (AUC), AUC norm value (OCUM1): −1.681
- Average Area Under the Viability Curve (AUC), AUC norm value (KATO3): 5.01
- Average Area Under the Viability Curve (AUC), AUC norm value (NCC20): −2.367
- Average Area Under the Viability Curve (AUC), AUC norm value (SNU1): −0.6163
- Average Area Under the Viability Curve (AUC), AUC norm value (FU97): −0.8445

Compound: CC(/C=C/C(=O)NO)=C\[C@@H](C)C(=O)c1ccc(N(C)C)cc1 [Trichostatin A (TSA), Trichostatin A]
- area under the viability curve (AUC), normalized (SNU216; SNU216 cells, 12-point dose-response): 0
- area under the viability curve (AUC), normalized (SNU638; 12-point dose-response): −0.2758
- area under the viability curve (AUC), normalized (NCC19; 12-point dose-response): −0.3026
- area under the viability curve (AUC), normalized (SNU1750; SNU1750 cells, 12-point dose-response): −1.0771
- area under the viability curve (AUC), normalized (YCC11; YCC11 cells, 12-point dose-response): −0.2695
- area under the viability curve (AUC), normalized (NCC24; 12-point dose-response): −1.307
- area under the viability curve (AUC), normalized (MKN45; MKN45 cells, 12-point dose-response): 2.215
- area under the viability curve (AUC), normalized (NCC59; 12-point dose-response): 1.784
- area under the viability curve (AUC), normalized (SNU668; SNU668 cells, 12-point dose-response): 0.1344
- area under the viability curve (AUC), normalized (SNU620; 12-point dose-response): −1.343
- area under the viability curve (AUC), normalized (Hs746T; Hs746T cells, 12-point dose-response): 0.6621
- area under the viability curve (AUC), normalized (SNU601; 12-point dose-response): 1.155
- area under the viability curve (AUC), normalized (SNU16; 12-point dose-response): 1.141
- area under the viability curve (AUC), normalized (NCI_N87; 12-point dose-response): −0.01232
- area under the viability curve (AUC), normalized (MKN28; 12-point dose-response): −0.6515
- area under the viability curve (AUC), normalized (MKN74; 12-point dose-response): 0.3005
- area under the viability curve (AUC), normalized (SNU719; 12-point dose-response): 1.883
- area under the viability curve (AUC), normalized (SNU1967; 12-point dose-response): −1.472
- area under the viability curve (AUC), normalized (AGS; AGS cells, 12-point dose-response): −1.137
- area under the viability curve (AUC), normalized (MKN1; 12-point dose-response): 0.4223
- area under the viability curve (AUC), normalized (SK4; SK4 cells, 12-point dose-response): 0.7897
- area under the viability curve (AUC), normalized (YCC3; 12-point dose-response): 1.17
- area under the viability curve (AUC), normalized (SNU484; SNU484 cells, 12-point dose-response): 0.4515
- area under the viability curve (AUC), normalized (YCC2; 12-point dose-response): 0.2017
- area under the viability curve (AUC), normalized (OCUM1; 12-point dose-response): 0.1474
- area under the viability curve (AUC), normalized (KATO3; 12-point dose-response): −0.1555
- area under the viability curve (AUC), normalized (NCC20; 12-point dose-response): −1.842
- area under the viability curve (AUC), normalized (SNU1; 12-point dose-response): −0.9946
- area under the viability curve (AUC), normalized (FU97; 12-point dose-response): −1.181

From patent US20250129430A1, “HIGH ATP-AFFINITY PROTEIN AS THERAPEUTIC TARGET FOR INTRACTABLE CANCER MOLECULAR SUBTYPES AND INHIBITOR THEREOF” (VeraVerse Co., Ltd., priority 2021, published 2025)
